Results published in US7964531B2, “3-phenoxy-4-pyridazinol derivatives and herbicidal composition containing the same” (Mitsui Chemicals Agro, Inc., priority 2001, dated 2011).

Legend:
Format in all cases: in vivo
Conditions in all cases: wettable powder applied 3 days after transplanting, judged after 25 days
[1] = tested on: annual broad-leaved weeds (Lindernia spp., Rotala indica); experiment: Test Example 1: herbicidal effects, paddy-field pot test
Description: (§1) A paddy soil was filled in 1/10,000 are pot, and seeds of barnyardgrass (Echinochloa oryzicola Vasing.), Scirpus joncoides and annual broad-leaved weeds (Lindernia spp., Rotala indica) which are awaken from dormancy were mixed at the surface layer of 1 cm. Also, tuber of Cyperus serotinus which is germinated was planted, and further seedlings of paddy-field rice at 2.2-leaf stage were transplanted, and they were grown under the flooded condition in a greenhouse. After 3 days from transplanting, a predetermined chemical dosage of the wettable powder prepared in accordance with Preparation example 1 was diluted in water, and the solution was applied to the pot and herbicidal effects and crop injury against transplanted paddy-field rice were judged after 25 days from the treatment. Also, 3-(2-allylphenoxy)-6-chloro-4-methoxypyridazine described in Chemical Pharmaceutical Bulletin, 1972, vol. 20, No. 10, pp. 2191-2203 was used as Comparative compound. Incidentally, herbicidal effects and crop injury against transplanted paddy-field rice were judged by the following judgment standard, and “-” in the table means no test was carried out.
(§2) Judgment Standard • 0: Growth inhibition rate; 0 to 10% • 1: Growth inhibition rate; 11 to 30% • 2: Growth inhibition rate; 31 to 50% • 3: Growth inhibition rate; 51 to 70% • 4: Growth inhibition rate; 71 to 90% • 5: Growth inhibition rate; 91 to 100%.

[2] = tested on: Cyperus serotinus; experiment: as above
Description: as §1, §2

[3] = tested on: barnyardgrass (Echinochloa oryzicola Vasing.); experiment: as above
Description: as §1, §2

[4] = tested on: Scirpus joncoides; experiment: as above
Description: as §1, §2

[5] = tested on: transplanted paddy-field rice; experiment: Test Example 1: crop injury against transplanted paddy-field rice
Description: as §1, §2

Compound: Oc1cc(Cl)nnc1Oc1cc(F)ccc1C1CC1 [Example 216]
- Herbicidal effects Broad leaf ([1]; chemical dosage 10 g/a): 5 (Growth inhibition rate; 91 to 100%)
- Herbicidal effects Broad leaf ([1]; chemical dosage 20 g/a): 5 (Growth inhibition rate; 91 to 100%)
- Herbicidal effects Cyperus serotinus ([2]; chemical dosage 10 g/a): 5 (Growth inhibition rate; 91 to 100%)
- Herbicidal effects Cyperus serotinus ([2]; chemical dosage 20 g/a): 5 (Growth inhibition rate; 91 to 100%)
- Herbicidal effects Barnyard grass ([3]; chemical dosage 10 g/a): 4 (Growth inhibition rate; 71 to 90%)
- Herbicidal effects Barnyard grass ([3]; chemical dosage 20 g/a): 4 (Growth inhibition rate; 71 to 90%)
- Herbicidal effects Scirpus joncoides ([4]; chemical dosage 10 g/a): 5 (Growth inhibition rate; 91 to 100%)
- Herbicidal effects Scirpus joncoides ([4]; chemical dosage 20 g/a): 5 (Growth inhibition rate; 91 to 100%)
- Crop injury against transplanted rice ([5]; chemical dosage 10 g/a): 0 (Growth inhibition rate; 0 to 10%)
- Crop injury against transplanted rice ([5]; chemical dosage 20 g/a): 2 (Growth inhibition rate; 31 to 50%)

Compound: Oc1cc(Cl)nnc1Oc1cccc(F)c1F [Example 154]
- Herbicidal effects Broad leaf ([1]; chemical dosage 10 g/a): 5 (Growth inhibition rate; 91 to 100%)
- Herbicidal effects Broad leaf ([1]; chemical dosage 20 g/a): 5 (Growth inhibition rate; 91 to 100%)
- Herbicidal effects Cyperus serotinus ([2]; chemical dosage 10 g/a): 5 (Growth inhibition rate; 91 to 100%)
- Herbicidal effects Cyperus serotinus ([2]; chemical dosage 20 g/a): 5 (Growth inhibition rate; 91 to 100%)
- Herbicidal effects Barnyard grass ([3]; chemical dosage 10 g/a): 1 (Growth inhibition rate; 11 to 30%)
- Herbicidal effects Barnyard grass ([3]; chemical dosage 20 g/a): 2 (Growth inhibition rate; 31 to 50%)
- Herbicidal effects Scirpus joncoides ([4]; chemical dosage 10 g/a): 3 (Growth inhibition rate; 51 to 70%)
- Herbicidal effects Scirpus joncoides ([4]; chemical dosage 20 g/a): 5 (Growth inhibition rate; 91 to 100%)
- Crop injury against transplanted rice ([5]; chemical dosage 10 g/a): 0 (Growth inhibition rate; 0 to 10%)
- Crop injury against transplanted rice ([5]; chemical dosage 20 g/a): 0 (Growth inhibition rate; 0 to 10%)

Compound: Cc1ccccc1Oc1nnc(Cl)cc1OS(C)(=O)=O [Example 356]
- Herbicidal effects Broad leaf ([1]; chemical dosage 10 g/a): 4 (Growth inhibition rate; 71 to 90%)
- Herbicidal effects Broad leaf ([1]; chemical dosage 20 g/a): 5 (Growth inhibition rate; 91 to 100%)
- Herbicidal effects Cyperus serotinus ([2]; chemical dosage 10 g/a): 5 (Growth inhibition rate; 91 to 100%)
- Herbicidal effects Cyperus serotinus ([2]; chemical dosage 20 g/a): 5 (Growth inhibition rate; 91 to 100%)
- Herbicidal effects Barnyard grass ([3]; chemical dosage 10 g/a): 2 (Growth inhibition rate; 31 to 50%)
- Herbicidal effects Barnyard grass ([3]; chemical dosage 20 g/a): 3 (Growth inhibition rate; 51 to 70%)
- Herbicidal effects Scirpus joncoides ([4]; chemical dosage 10 g/a): 3 (Growth inhibition rate; 51 to 70%)
- Herbicidal effects Scirpus joncoides ([4]; chemical dosage 20 g/a): 5 (Growth inhibition rate; 91 to 100%)
- Crop injury against transplanted rice ([5]; chemical dosage 10 g/a): 0 (Growth inhibition rate; 0 to 10%)
- Crop injury against transplanted rice ([5]; chemical dosage 20 g/a): 0 (Growth inhibition rate; 0 to 10%)

Compound: CCOC(=O)Oc1cc(Cl)nnc1Oc1ccccc1C1CC1 [Example 347]
- Herbicidal effects Broad leaf ([1]; chemical dosage 10 g/a): 5 (Growth inhibition rate; 91 to 100%)
- Herbicidal effects Broad leaf ([1]; chemical dosage 20 g/a): 5 (Growth inhibition rate; 91 to 100%)
- Herbicidal effects Cyperus serotinus ([2]; chemical dosage 10 g/a): 5 (Growth inhibition rate; 91 to 100%)
- Herbicidal effects Cyperus serotinus ([2]; chemical dosage 20 g/a): 5 (Growth inhibition rate; 91 to 100%)
- Herbicidal effects Barnyard grass ([3]; chemical dosage 10 g/a): 3 (Growth inhibition rate; 51 to 70%)
- Herbicidal effects Barnyard grass ([3]; chemical dosage 20 g/a): 4 (Growth inhibition rate; 71 to 90%)
- Herbicidal effects Scirpus joncoides ([4]; chemical dosage 10 g/a): 5 (Growth inhibition rate; 91 to 100%)
- Herbicidal effects Scirpus joncoides ([4]; chemical dosage 20 g/a): 5 (Growth inhibition rate; 91 to 100%)
- Crop injury against transplanted rice ([5]; chemical dosage 10 g/a): 0 (Growth inhibition rate; 0 to 10%)
- Crop injury against transplanted rice ([5]; chemical dosage 20 g/a): 0 (Growth inhibition rate; 0 to 10%)

Compound: Oc1cc(Cl)nnc1Oc1cccc2c1OCO2 [Example 192]
- Herbicidal effects Broad leaf ([1]; chemical dosage 10 g/a): 2 (Growth inhibition rate; 31 to 50%)
- Herbicidal effects Broad leaf ([1]; chemical dosage 20 g/a): 3 (Growth inhibition rate; 51 to 70%)
- Herbicidal effects Cyperus serotinus ([2]; chemical dosage 10 g/a): 5 (Growth inhibition rate; 91 to 100%)
- Herbicidal effects Cyperus serotinus ([2]; chemical dosage 20 g/a): 5 (Growth inhibition rate; 91 to 100%)
- Herbicidal effects Barnyard grass ([3]; chemical dosage 10 g/a): 2 (Growth inhibition rate; 31 to 50%)
- Herbicidal effects Barnyard grass ([3]; chemical dosage 20 g/a): 5 (Growth inhibition rate; 91 to 100%)
- Herbicidal effects Scirpus joncoides ([4]; chemical dosage 10 g/a): 5 (Growth inhibition rate; 91 to 100%)
- Herbicidal effects Scirpus joncoides ([4]; chemical dosage 20 g/a): 5 (Growth inhibition rate; 91 to 100%)
- Crop injury against transplanted rice ([5]; chemical dosage 10 g/a): 0 (Growth inhibition rate; 0 to 10%)
- Crop injury against transplanted rice ([5]; chemical dosage 20 g/a): 1 (Growth inhibition rate; 11 to 30%)

Compound: CCc1cccc(Br)c1Oc1nnc(Cl)cc1O [Example 250]
- Herbicidal effects Broad leaf ([1]; chemical dosage 10 g/a): 5 (Growth inhibition rate; 91 to 100%)
- Herbicidal effects Broad leaf ([1]; chemical dosage 20 g/a): 5 (Growth inhibition rate; 91 to 100%)
- Herbicidal effects Cyperus serotinus ([2]; chemical dosage 10 g/a): 5 (Growth inhibition rate; 91 to 100%)
- Herbicidal effects Cyperus serotinus ([2]; chemical dosage 20 g/a): 5 (Growth inhibition rate; 91 to 100%)
- Herbicidal effects Barnyard grass ([3]; chemical dosage 10 g/a): 3 (Growth inhibition rate; 51 to 70%)
- Herbicidal effects Barnyard grass ([3]; chemical dosage 20 g/a): 4 (Growth inhibition rate; 71 to 90%)
- Herbicidal effects Scirpus joncoides ([4]; chemical dosage 10 g/a): 5 (Growth inhibition rate; 91 to 100%)
- Herbicidal effects Scirpus joncoides ([4]; chemical dosage 20 g/a): 5 (Growth inhibition rate; 91 to 100%)
- Crop injury against transplanted rice ([5]; chemical dosage 10 g/a): 0 (Growth inhibition rate; 0 to 10%)
- Crop injury against transplanted rice ([5]; chemical dosage 20 g/a): 0 (Growth inhibition rate; 0 to 10%)

Compound: O=S(=O)(Oc1cc(Cl)nnc1Oc1ccccc1C1CC1)c1ccccc1 [Example 365]
- Herbicidal effects Broad leaf ([1]; chemical dosage 10 g/a): 5 (Growth inhibition rate; 91 to 100%)
- Herbicidal effects Broad leaf ([1]; chemical dosage 20 g/a): 5 (Growth inhibition rate; 91 to 100%)
- Herbicidal effects Cyperus serotinus ([2]; chemical dosage 10 g/a): 5 (Growth inhibition rate; 91 to 100%)
- Herbicidal effects Cyperus serotinus ([2]; chemical dosage 20 g/a): 5 (Growth inhibition rate; 91 to 100%)
- Herbicidal effects Barnyard grass ([3]; chemical dosage 10 g/a): 2 (Growth inhibition rate; 31 to 50%)
- Herbicidal effects Barnyard grass ([3]; chemical dosage 20 g/a): 3 (Growth inhibition rate; 51 to 70%)
- Herbicidal effects Scirpus joncoides ([4]; chemical dosage 10 g/a): 4 (Growth inhibition rate; 71 to 90%)
- Herbicidal effects Scirpus joncoides ([4]; chemical dosage 20 g/a): 5 (Growth inhibition rate; 91 to 100%)
- Crop injury against transplanted rice ([5]; chemical dosage 10 g/a): 0 (Growth inhibition rate; 0 to 10%)
- Crop injury against transplanted rice ([5]; chemical dosage 20 g/a): 0 (Growth inhibition rate; 0 to 10%)

Compound: Cc1ccccc1Oc1nnc(Br)cc1O [Example 34]
- Herbicidal effects Broad leaf ([1]; chemical dosage 10 g/a): 2 (Growth inhibition rate; 31 to 50%)
- Herbicidal effects Broad leaf ([1]; chemical dosage 20 g/a): 4 (Growth inhibition rate; 71 to 90%)
- Herbicidal effects Cyperus serotinus ([2]; chemical dosage 10 g/a): 5 (Growth inhibition rate; 91 to 100%)
- Herbicidal effects Cyperus serotinus ([2]; chemical dosage 20 g/a): 5 (Growth inhibition rate; 91 to 100%)
- Herbicidal effects Barnyard grass ([3]; chemical dosage 10 g/a): 1 (Growth inhibition rate; 11 to 30%)
- Herbicidal effects Barnyard grass ([3]; chemical dosage 20 g/a): 2 (Growth inhibition rate; 31 to 50%)
- Herbicidal effects Scirpus joncoides ([4]; chemical dosage 10 g/a): 2 (Growth inhibition rate; 31 to 50%)
- Herbicidal effects Scirpus joncoides ([4]; chemical dosage 20 g/a): 4 (Growth inhibition rate; 71 to 90%)
- Crop injury against transplanted rice ([5]; chemical dosage 10 g/a): 0 (Growth inhibition rate; 0 to 10%)
- Crop injury against transplanted rice ([5]; chemical dosage 20 g/a): 0 (Growth inhibition rate; 0 to 10%)

Compound: Oc1cc(Cl)nnc1Oc1c(Br)ccc2c1CCC2 [Example 304]
- Herbicidal effects Broad leaf ([1]; chemical dosage 10 g/a): 5 (Growth inhibition rate; 91 to 100%)
- Herbicidal effects Broad leaf ([1]; chemical dosage 20 g/a): 5 (Growth inhibition rate; 91 to 100%)
- Herbicidal effects Cyperus serotinus ([2]; chemical dosage 10 g/a): 4 (Growth inhibition rate; 71 to 90%)
- Herbicidal effects Cyperus serotinus ([2]; chemical dosage 20 g/a): 5 (Growth inhibition rate; 91 to 100%)
- Herbicidal effects Barnyard grass ([3]; chemical dosage 10 g/a): 4 (Growth inhibition rate; 71 to 90%)
- Herbicidal effects Barnyard grass ([3]; chemical dosage 20 g/a): 4 (Growth inhibition rate; 71 to 90%)
- Herbicidal effects Scirpus joncoides ([4]; chemical dosage 10 g/a): 4 (Growth inhibition rate; 71 to 90%)
- Herbicidal effects Scirpus joncoides ([4]; chemical dosage 20 g/a): 5 (Growth inhibition rate; 91 to 100%)
- Crop injury against transplanted rice ([5]; chemical dosage 10 g/a): 0 (Growth inhibition rate; 0 to 10%)
- Crop injury against transplanted rice ([5]; chemical dosage 20 g/a): 0 (Growth inhibition rate; 0 to 10%)

Compound: CCc1ccc(C2CC2)c(Oc2nnc(Cl)cc2O)c1 [Example 219]
- Herbicidal effects Broad leaf ([1]; chemical dosage 10 g/a): 5 (Growth inhibition rate; 91 to 100%)
- Herbicidal effects Broad leaf ([1]; chemical dosage 20 g/a): 5 (Growth inhibition rate; 91 to 100%)
- Herbicidal effects Barnyard grass ([3]; chemical dosage 10 g/a): 3 (Growth inhibition rate; 51 to 70%)
- Herbicidal effects Barnyard grass ([3]; chemical dosage 20 g/a): 4 (Growth inhibition rate; 71 to 90%)
- Herbicidal effects Scirpus joncoides ([4]; chemical dosage 10 g/a): 5 (Growth inhibition rate; 91 to 100%)
- Herbicidal effects Scirpus joncoides ([4]; chemical dosage 20 g/a): 5 (Growth inhibition rate; 91 to 100%)
- Crop injury against transplanted rice ([5]; chemical dosage 10 g/a): 0 (Growth inhibition rate; 0 to 10%)
- Crop injury against transplanted rice ([5]; chemical dosage 20 g/a): 0 (Growth inhibition rate; 0 to 10%)

Compound: CC(C)c1cccc(C(C)C)c1Oc1nnc(Cl)cc1O [Example 271]
- Herbicidal effects Broad leaf ([1]; chemical dosage 12.5 g/a): 5 (Growth inhibition rate; 91 to 100%)
- Herbicidal effects Broad leaf ([1]; chemical dosage 25 g/a): 5 (Growth inhibition rate; 91 to 100%)
- Herbicidal effects Cyperus serotinus ([2]; chemical dosage 12.5 g/a): 3 (Growth inhibition rate; 51 to 70%)
- Herbicidal effects Cyperus serotinus ([2]; chemical dosage 25 g/a): 4 (Growth inhibition rate; 71 to 90%)
- Herbicidal effects Barnyard grass ([3]; chemical dosage 12.5 g/a): 1 (Growth inhibition rate; 11 to 30%)
- Herbicidal effects Barnyard grass ([3]; chemical dosage 25 g/a): 2 (Growth inhibition rate; 31 to 50%)
- Herbicidal effects Scirpus joncoides ([4]; chemical dosage 12.5 g/a): 2 (Growth inhibition rate; 31 to 50%)
- Herbicidal effects Scirpus joncoides ([4]; chemical dosage 25 g/a): 4 (Growth inhibition rate; 71 to 90%)

Compound: CN(C)C(=O)Oc1cc(Cl)nnc1Oc1ccccc1C1CC1 [Example 352]
- Herbicidal effects Broad leaf ([1]; chemical dosage 20 g/a): 5 (Growth inhibition rate; 91 to 100%)
- Herbicidal effects Barnyard grass ([3]; chemical dosage 20 g/a): 4 (Growth inhibition rate; 71 to 90%)
- Herbicidal effects Scirpus joncoides ([4]; chemical dosage 20 g/a): 5 (Growth inhibition rate; 91 to 100%)
- Crop injury against transplanted rice ([5]; chemical dosage 20 g/a): 0 (Growth inhibition rate; 0 to 10%)
